# Starred links: 1 amine or outer side, 2 acyl side, 3 side chain; linkers in the order of their positions; H or OH if unused. Positions of bridges follow the written chain, without caps; N, C: chain ends. Non-standard residues stand in square brackets, D forms with d. Residues, ends and D or L forms follow the SMILES beside them. Groups on a side chain read outwards from the residue. *: point of attachment. X6 = CSCC[C@H](NC(=O)c1ccc(CNC(=O)CN2CCN(CC(=O)O)CCN(CC(=O)O)CCN(CC(=O)O)CC2)cc1)C(=O)N[C@H](C(=O)N[C@@H](CCCCN*)C(=O)O)C(C)C; Ala(piperidin-4-yl) = O=C([C@H](CC1CCN([*:3])CC1)N[*:1])[*:2]; Phe(3R-OH) = O=C([C@@H](N[*:1])[C@H](O[*:3])c1ccccc1)[*:2]; DOTA = O=C(O)CN1CCN(CC(=O)O)CCN(CC(=O)*)CCN(CC(=O)O)CC1; Trp(5-F) = N[C@@H](Cc1c[nH]c2ccc(F)cc12)C(=O)O; Trp(7-aza) = N[C@@H](Cc1c[nH]c2ncccc12)C(=O)O; X1 = C[C@@H](c1ccccc1)[C@H](N[*:1])C(=O)[*:2]; Trp(1-Me) = Cn1cc(C[C@H](N)C(=O)O)c2ccccc21; γGlu = O=C(O)[C@H](CCC(=O)[*:2])N[*:1]; 1Nal = N[C@@H](Cc1cccc2ccccc12)C(=O)O; Ala(4-THP) = N[C@@H](CC1CCOCC1)C(=O)O; Val(3-OH) = CC(C)(O)[C@H](N)C(=O)O; Chg = N[C@H](C(=O)O)C1CCCCC1; PEG4 = NCCOCCOCCOCCOCCC(=O)O; Tle = CC(C)(C)[C@H](N)C(=O)O; hLeu = CC(C)CC[C@H](N)C(=O)O; Nle = CCCC[C@H](N)C(=O)O
# Target: T1, human 4lg B7-H3 (Homo sapiens, UniProt Q5ZPR3)
# T1 sequence (Q5ZPR3 29-534): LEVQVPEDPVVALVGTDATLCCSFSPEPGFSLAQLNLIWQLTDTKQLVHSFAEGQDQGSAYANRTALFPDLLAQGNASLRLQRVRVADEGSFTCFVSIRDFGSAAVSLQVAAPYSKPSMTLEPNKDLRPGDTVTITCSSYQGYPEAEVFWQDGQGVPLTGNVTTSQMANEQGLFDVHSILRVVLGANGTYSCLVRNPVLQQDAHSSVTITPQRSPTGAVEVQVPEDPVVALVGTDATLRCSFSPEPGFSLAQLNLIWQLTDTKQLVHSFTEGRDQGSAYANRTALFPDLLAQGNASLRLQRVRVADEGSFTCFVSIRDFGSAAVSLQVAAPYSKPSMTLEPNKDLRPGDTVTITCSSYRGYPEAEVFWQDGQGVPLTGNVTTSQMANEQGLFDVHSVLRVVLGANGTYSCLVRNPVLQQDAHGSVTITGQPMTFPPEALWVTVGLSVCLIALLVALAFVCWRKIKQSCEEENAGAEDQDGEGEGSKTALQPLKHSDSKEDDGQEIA
# Test: Affinity determination by surface plasmon resonance (SPR) to 4Ig B7-H3
# Conditions: 4Ig B7-H3
# [1] = SPR KD—37° C., 37° C. flow cell temperature
# [2] = SPR KD—25° C., 25° C. flow cell temperature
SMILES,Kd [1] [nM],Kd [2] [nM]
"CC(=O)N[C@@H](CCC(C)C)C(=O)N[C@@H](Cc1ccc(O)cc1)C(=O)N[C@H]1CSSC[C@@H](C(=O)N[C@@H](Cc2c[nH]c3ccc(F)cc23)C(=O)N[C@@H](Cc2ccccc2)C(=O)N[C@H](C(=O)N[C@H](CCCCN)C(N)=O)C(C)(C)O)NC(=O)[C@H](Cc2ccc(O)cc2)NC(=O)[C@H](C(C)C)NC(=O)[C@H](CC(=O)O)NC(=O)[C@H](CC2CCOCC2)NC(=O)[C@H](CCCCNC(=O)CN2CCN(CC(=O)O)CCN(CC(=O)O)CCN(CC(=O)O)CC2)NC(=O)CNC(=O)[C@H](C(C)(C)C)NC1=O [compound 337, Ac-hLeu-Y-C-Tbg-G-Lys(DOTA)-ThpA-D-V-Y-C-5FW-F-hydroxyVal-dLys-CONH2] (Ac-[hLeu]YC[Tle]GK(DOTA)[Ala(4-THP)]DVYC[Trp(5-F)]F[Val(3-OH)][dK]-NH2; disulfide 3-11)",1 to 10,–
"CCCC[C@H](NC(C)=O)C(=O)N[C@@H](Cc1ccc(O)cc1)C(=O)N[C@H]1CSSC[C@@H](C(=O)N[C@@H](Cc2c[nH]c3ncccc23)C(=O)N[C@@H](Cc2ccccc2)C(=O)N[C@H](C(=O)N[C@H](CCCCNC(=O)CN2CCN(CC(=O)O)CCN(CC(=O)O)CCN(CC(=O)O)CC2)C(N)=O)[C@@H](C)O)NC(=O)[C@H](Cc2ccc(O)cc2)NC(=O)[C@H](C(C)C)NC(=O)[C@H](CC(=O)O)NC(=O)[C@H](Cc2ccc(O)cc2)NC(=O)[C@H](CCCCN)NC(=O)CNC(=O)[C@H](C(C)C)NC1=O [compound 134, Ac-Nle-Y-C-V-G-K-Y-D-V-Y-C-7NW-F-Thr-dLys(DOTA)-CONH2] (Ac-[Nle]YCVGKYDVYC[Trp(7-aza)]FT[dK](DOTA)-NH2; disulfide 3-11)",–,10 to 100
"CC(=O)N[C@@H](CCC(C)C)C(=O)N[C@@H](Cc1ccc(O)cc1)C(=O)N[C@H]1CSSC[C@@H](C(=O)N[C@@H](Cc2c[nH]c3ccccc23)C(=O)N[C@@H](Cc2ccccc2)C(=O)N[C@H](C(=O)N[C@H](CCCCNC(=O)CN2CCN(CC(=O)O)CCN(CC(=O)O)CCN(CC(=O)O)CC2)C(N)=O)[C@@H](C)O)NC(=O)[C@H](Cc2ccc(O)cc2)NC(=O)[C@H](C(C)C)NC(=O)[C@H](CC(=O)O)NC(=O)[C@H](CC2CCNCC2)NC(=O)[C@H](CCCCN)NC(=O)CNC(=O)[C@H](C(C)C)NC1=O [compound 135, Ac-hLeu-Y-C-V-G-K-PipAla-D-V-Y-C-W-F-Thr-dLys(DOTA)-CONH2] (Ac-[hLeu]YCVGK[Ala(piperidin-4-yl)]DVYCWFT[dK](DOTA)-NH2; disulfide 3-11)",–,1 to 10
"CC(=O)N[C@@H](CCC(C)C)C(=O)N[C@@H](Cc1ccc(O)cc1)C(=O)N[C@H]1CSSC[C@@H](C(=O)N[C@@H](Cc2cccc3ccccc23)C(=O)N[C@@H](Cc2ccccc2)C(=O)N2CCC[C@H]2C(=O)N[C@H](CCCCNC(=O)CC[C@H](NC(=O)CN2CCN(CC(=O)O)CCN(CC(=O)O)CCN(CC(=O)O)CC2)C(=O)O)C(N)=O)NC(=O)[C@H](Cc2ccc(O)cc2)NC(=O)[C@H](C(C)C)NC(=O)[C@H](CC(=O)O)NC(=O)[C@H](CC2CCOCC2)NC(=O)[C@H](CCCCN)NC(=O)CNC(=O)[C@H](C(C)(C)C)NC1=O [compound 274, Ac-hLeu-Y-C-Tbg-G-K-ThpA-D-V-Y-C-1Nal-F-Pro-dLys(gE-DOTA)-CONH2] (Ac-[hLeu]YC[Tle]GK[Ala(4-THP)]DVYC[1Nal]FP[dK]([γGlu-DOTA])-NH2; disulfide 3-11)",–,< 1
"CC(=O)N[C@@H](CCC(C)C)C(=O)N[C@@H](Cc1ccc(O)cc1)C(=O)N[C@H]1CSSC[C@@H](C(=O)N[C@@H](Cc2c[nH]c3ccc(F)cc23)C(=O)N[C@@H](Cc2ccccc2)C(=O)N[C@H](C(=O)N[C@H](CO)C(=O)O)C(C)(C)O)NC(=O)[C@H](Cc2ccc(O)cc2)NC(=O)[C@H](C(C)C)NC(=O)[C@H](CC(=O)O)NC(=O)[C@H](CC2CCOCC2)NC(=O)[C@H](CC2CCN(C(=O)CCOCCOCCOCCOCCNC(=O)CN3CCN(CC(=O)O)CCN(CC(=O)O)CCN(CC(=O)O)CC3)CC2)NC(=O)CNC(=O)[C@H](C(C)(C)C)NC1=O [compound 490, Ac-hLeu-Y-C-Tbg-G-Pip(PEG4-DOTA)Ala-ThpA-D-V-Y-C-5FW-F-hydroxyVal-dSer-COOH] (Ac-[hLeu]YC[Tle]G[Ala(piperidin-4-yl)]([PEG4-DOTA])[Ala(4-THP)]DVYC[Trp(5-F)]F[Val(3-OH)][dS]-OH; disulfide 3-11)",< 1,–
"CSCC[C@H](NC(=O)c1ccc(CNC(=O)CN2CCN(CC(=O)O)CCN(CC(=O)O)CCN(CC(=O)O)CC2)cc1)C(=O)N[C@H](C(=O)N[C@@H](CCCCNC(=O)[C@@H](NC(=O)[C@@H](NC(=O)[C@H](Cc1c[nH]c2ccc(F)cc12)NC(=O)[C@@H]1CSSC[C@H](NC(=O)[C@H](Cc2ccc(O)cc2)NC(=O)[C@H](CCC(C)C)NC(C)=O)C(=O)N[C@@H](C(C)(C)C)C(=O)NCC(=O)N[C@@H](CC2CCNCC2)C(=O)N[C@@H](CC2CCOCC2)C(=O)N[C@@H](CC(=O)O)C(=O)N[C@@H](C(C)C)C(=O)N[C@@H](Cc2ccc(O)cc2)C(=O)N1)[C@@H](C)c1ccccc1)C(C)(C)O)C(=O)O)C(C)C [Cpd #517, Ac-hLeu-Y-C-Tbg-G-PipAla-ThpA-D-V-Y-C-5FW-[(2S, 3S)beta-Me-Phe]-hydroxyVal-&Lys(Val-Met-AmBz-DOTA)-COOH] (Ac-[hLeu]YC[Tle]G[Ala(piperidin-4-yl)][Ala(4-THP)]DVYC[Trp(5-F)][X1][Val(3-OH)]-X6; disulfide 3-11)",< 1,–
"CCCC[C@H](NC(C)=O)C(=O)N[C@@H](Cc1ccc(O)cc1)C(=O)N[C@H]1CSSC[C@@H](C(=O)N[C@@H](Cc2c[nH]c3ccccc23)C(=O)N[C@@H](Cc2ccccc2)C(=O)N[C@H](C(=O)N[C@H](CCCCNC(=O)CN2CCN(CC(=O)O)CCN(CC(=O)O)CCN(CC(=O)O)CC2)C(N)=O)[C@@H](C)O)NC(=O)[C@H](Cc2ccc(O)cc2)NC(=O)[C@H](C2CCCCC2)NC(=O)[C@H](CC(=O)O)NC(=O)[C@H](Cc2ccc(O)cc2)NC(=O)[C@H](CCCCN)NC(=O)CNC(=O)[C@H](C(C)C)NC1=O [compound 55, Ac-Nle-Y-C-V-G-K-Y-D-ChG-Y-C-W-F-Thr-dLys(DOTA)-CONH2] (Ac-[Nle]YCVGKYD[Chg]YCWFT[dK](DOTA)-NH2; disulfide 3-11)",–,1 to 10
"CC(=O)N[C@@H](CCC(C)C)C(=O)N[C@@H](Cc1ccc(O)cc1)C(=O)N[C@H]1CSSC[C@@H](C(=O)N[C@@H](Cc2c[nH]c3ccc(F)cc23)C(=O)N[C@@H](Cc2ccccc2)C(=O)N[C@H](C(=O)N[C@H](CCCCNC(=O)CN2CCN(CC(=O)O)CCN(CC(=O)O)CCN(CC(=O)O)CC2)C(=O)O)[C@@H](C)O)NC(=O)[C@H](Cc2ccc(O)cc2)NC(=O)[C@H](C(C)C)NC(=O)[C@H](CC(=O)O)NC(=O)[C@H](CC2CCOCC2)NC(=O)[C@H](CCCCN)NC(=O)CNC(=O)[C@H](C(C)(C)C)NC1=O [compound 332, Ac-hLeu-Y-C-Tbg-G-K-ThpA-D-V-Y-C-5FW-F-Thr-dLys(DOTA)-COOH] (Ac-[hLeu]YC[Tle]GK[Ala(4-THP)]DVYC[Trp(5-F)]FT[dK](DOTA)-OH; disulfide 3-11)",–,< 1
"CC(=O)N[C@@H](CCC(C)C)C(=O)N[C@@H](Cc1ccc(O)cc1)C(=O)N[C@H]1CSSC[C@@H](C(=O)N[C@@H](Cc2c[nH]c3ccc(F)cc23)C(=O)N[C@@H](Cc2ccccc2)C(=O)N[C@H](C(=O)N[C@H](CO)C(N)=O)C(C)(C)O)NC(=O)[C@H](Cc2ccc(O)cc2)NC(=O)[C@H](C(C)C)NC(=O)[C@H](CC(=O)O)NC(=O)[C@H](CC2CCOCC2)NC(=O)[C@H](CCCCNC(=O)CN2CCN(CC(=O)O)CCN(CC(=O)O)CCN(CC(=O)O)CC2)NC(=O)CNC(=O)[C@H](C(C)(C)C)NC1=O [compound 422, Ac-hLeu-Y-C-Tbg-G-Lys(DOTA)-ThpA-D-V-Y-C-5FW-F-hydroxyVal-dSer-CONH2] (Ac-[hLeu]YC[Tle]GK(DOTA)[Ala(4-THP)]DVYC[Trp(5-F)]F[Val(3-OH)][dS]-NH2; disulfide 3-11)",1 to 10,–
"CC(=O)N[C@@H](CCC(C)C)C(=O)N[C@@H](Cc1ccc(O)cc1)C(=O)N[C@H]1CSSC[C@@H](C(=O)N[C@@H](Cc2c[nH]c3ccc(F)cc23)C(=O)N[C@H](C(=O)N[C@H](C(=O)N[C@H](CCCCNC(=O)CN2CCN(CC(=O)O)CCN(CC(=O)O)CCN(CC(=O)O)CC2)C(=O)O)C(C)(C)O)[C@H](O)c2ccccc2)NC(=O)[C@H](Cc2ccc(O)cc2)NC(=O)[C@H](C(C)C)NC(=O)[C@H](CC(=O)O)NC(=O)[C@H](CC2CCOCC2)NC(=O)[C@H](CC2CCNCC2)NC(=O)CNC(=O)[C@H](C(C)(C)C)NC1=O [compound 469, Ac-hLeu-Y-C-Tbg-G-PipAla-ThpA-D-V-Y-C-5FW-[(2S, 3R)beta-OH-Phe]-hydroxyVal-dLys(DOTA)-COOH] (Ac-[hLeu]YC[Tle]G[Ala(piperidin-4-yl)][Ala(4-THP)]DVYC[Trp(5-F)][Phe(3R-OH)][Val(3-OH)][dK](DOTA)-OH; disulfide 3-11)",< 1,–
"CC(=O)N[C@@H](CCC(C)C)C(=O)N[C@@H](Cc1ccc(O)cc1)C(=O)N[C@H]1CSSC[C@@H](C(=O)N[C@@H](Cc2cn(C)c3ccccc23)C(=O)N[C@@H](Cc2ccccc2)C(=O)N[C@H](C(=O)N[C@H](CCCCNC(=O)CN2CCN(CC(=O)O)CCN(CC(=O)O)CCN(CC(=O)O)CC2)C(N)=O)[C@@H](C)O)NC(=O)[C@H](Cc2ccc(O)cc2)NC(=O)[C@H](C(C)C)NC(=O)[C@H](CC(=O)O)NC(=O)[C@H](Cc2ccc(O)cc2)NC(=O)[C@H](CCCCN)NC(=O)CNC(=O)[C@H](C(C)C)NC1=O [compound 150, Ac-hLeu-Y-C-V-G-K-Y-D-V-Y-C-Trp(Me)-F-Thr-dLys(DOTA)-CONH2] (Ac-[hLeu]YCVGKYDVYC[Trp(1-Me)]FT[dK](DOTA)-NH2; disulfide 3-11)",–,< 1
